{"source": "the supplement of paper PMC11208160", "assay": "recombinant barcode read abundance after kanamycin selection (control-corrected) (log10(CPM+1)); higher = more efficient recombination; sequences stand for … in AGTGCAGAGAAAATCGGCCAGTTTTCTCTGCCTGCAGTCCGCATGCCGT…ATTTATGCAGCGGACTGCCTTTCTCCCAAAGTGATAAACCGGACAGTATCATGGACCGGTTTTCCCGGTAATCCGTATTTGCAAGGTTGGTTTCACT; site = the 11-nt target", "outline": "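The screen was pooled in E. coli and paired targets with IS621 bridge RNA target-binding loops. Recombination efficiency is taken from barcode counts per million at recombinant junctions, averaged and adjusted against the control. Values, in the form log10(CPM+1), come from duplicate plating on chloramphenicol/ampicillin LB agar or on chloramphenicol/ampicillin/kanamycin with 0.1 mM IPTG.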"}
{"sequence": "GGCTCCCACTGGGTTCTAACCTGTTGCGGAG [GGCTCCCCTCC_LTGcore_AC_RTGcore_CT] (site GGCTCCCCTCC) (LTG core: AC, RTG core: CT)", "values": [{"measurement": "recombinant barcode read abundance (log10)", "result": 0.149}]}
{"sequence": "GGCTCCCACTGGGTTCTAACCTGTTGCGGGT [GGCTCCCCTCC_LTGcore_AC_RTGcore_AC] (site GGCTCCCCTCC) (LTG core: AC, RTG core: AC)", "values": [{"measurement": "recombinant barcode read abundance (log10)", "result": 0.143}]}
{"sequence": "GGCTCCCAGTGGGTTCTAACCTGTTGCGGAG [GGCTCCCCTCC_LTGcore_AG_RTGcore_CT] (site GGCTCCCCTCC) (LTG core: AG, RTG core: CT)", "values": [{"measurement": "recombinant barcode read abundance (log10)", "result": 0.156}]}
{"sequence": "GGCTCCCCTTGGGTTCTAACCTGTTGCGGAA [GGCTCCCCTCC_LTGcore_CT_RTGcore_TT] (site GGCTCCCCTCC) (LTG core: CT, RTG core: TT)", "values": [{"measurement": "recombinant barcode read abundance (log10)", "result": 0.164}]}
{"sequence": "GGCTCCCCTTGGGTTCTAACCTGTTGCGGCT [GGCTCCCCTCC_LTGcore_CT_RTGcore_AG] (site GGCTCCCCTCC) (LTG core: CT, RTG core: AG)", "values": [{"measurement": "recombinant barcode read abundance (log10)", "result": 0.0367}]}
{"sequence": "GGCTCCCGATGGGTTCTAACCTGTTGCGGAG [GGCTCCCCTCC_LTGcore_GA_RTGcore_CT] (site GGCTCCCCTCC) (LTG core: GA, RTG core: CT)", "values": [{"measurement": "recombinant barcode read abundance (log10)", "result": 0.104}]}
{"sequence": "GGCTCCCGATGGGTTCTAACCTGTTGCGGTC [GGCTCCCCTCC_LTGcore_GA_RTGcore_GA] (site GGCTCCCCTCC) (LTG core: GA, RTG core: GA)", "values": [{"measurement": "recombinant barcode read abundance (log10)", "result": 0.109}]}
{"sequence": "GGCTCCCTATGGGTTCTAACCTGTTGCGGTA [GGCTCCCCTCC_LTGcore_TA_RTGcore_TA] (site GGCTCCCCTCC) (LTG core: TA, RTG core: TA)", "values": [{"measurement": "recombinant barcode read abundance (log10)", "result": 0.201}]}
{"sequence": "GGCTCCCTCTGGGTTCTAACCTGTTGCGGAG [GGCTCCCCTCC_LTGcore_TC_RTGcore_CT] (site GGCTCCCCTCC) (LTG core: TC, RTG core: CT)", "values": [{"measurement": "recombinant barcode read abundance (log10)", "result": 0.172}]}
{"sequence": "GGGAGCCATTGGGTTCTAACCTGTTGCTGAG [GGGAGCCCTCA_LTGcore_AT_RTGcore_CT] (site GGGAGCCCTCA) (LTG core: AT, RTG core: CT)", "values": [{"measurement": "recombinant barcode read abundance (log10)", "result": 0.526}]}
{"sequence": "GGGAGCCCGTGGGTTCTAACCTGTTGCTGAG [GGGAGCCCTCA_LTGcore_CG_RTGcore_CT] (site GGGAGCCCTCA) (LTG core: CG, RTG core: CT)", "values": [{"measurement": "recombinant barcode read abundance (log10)", "result": 0.27}]}
{"sequence": "GGGAGCCCTTGGGTTCTAACCTGTTGCTGAG [GGGAGCCCTCA_LTGcore_CT_RTGcore_CT] (site GGGAGCCCTCA) (LTG core: CT, RTG core: CT)", "values": [{"measurement": "recombinant barcode read abundance (log10)", "result": 1.87}]}
{"sequence": "GGGAGCCCTTGGGTTCTAACCTGTTGCTGCT [GGGAGCCCTCA_LTGcore_CT_RTGcore_AG] (site GGGAGCCCTCA) (LTG core: CT, RTG core: AG)", "values": [{"measurement": "recombinant barcode read abundance (log10)", "result": 0.652}]}
{"sequence": "GGGAGCCCTTGGGTTCTAACCTGTTGCTGGC [GGGAGCCCTCA_LTGcore_CT_RTGcore_GC] (site GGGAGCCCTCA) (LTG core: CT, RTG core: GC)", "values": [{"measurement": "recombinant barcode read abundance (log10)", "result": 0.0756}]}
{"sequence": "GGGAGCCCTTGGGTTCTAACCTGTTGCTGGG [GGGAGCCCTCA_LTGcore_CT_RTGcore_CC] (site GGGAGCCCTCA) (LTG core: CT, RTG core: CC)", "values": [{"measurement": "recombinant barcode read abundance (log10)", "result": 0.111}]}
{"sequence": "GGGAGCCCTTGGGTTCTAACCTGTTGCTGGT [GGGAGCCCTCA_LTGcore_CT_RTGcore_AC] (site GGGAGCCCTCA) (LTG core: CT, RTG core: AC)", "values": [{"measurement": "recombinant barcode read abundance (log10)", "result": 0.208}]}
{"sequence": "GGGAGCCGATGGGTTCTAACCTGTTGCTGTC [GGGAGCCCTCA_LTGcore_GA_RTGcore_GA] (site GGGAGCCCTCA) (LTG core: GA, RTG core: GA)", "values": [{"measurement": "recombinant barcode read abundance (log10)", "result": 0.0745}]}
{"sequence": "GGGAGCCTGTGGGTTCTAACCTGTTGCTGAG [GGGAGCCCTCA_LTGcore_TG_RTGcore_CT] (site GGGAGCCCTCA) (LTG core: TG, RTG core: CT)", "values": [{"measurement": "recombinant barcode read abundance (log10)", "result": 0.259}]}
{"sequence": "GGGAGCCTGTGGGTTCTAACCTGTTGCTGCA [GGGAGCCCTCA_LTGcore_TG_RTGcore_TG] (site GGGAGCCCTCA) (LTG core: TG, RTG core: TG)", "values": [{"measurement": "recombinant barcode read abundance (log10)", "result": 0.285}]}
{"sequence": "GGGCGGAACTGGGTTCTAACCTGTTGCGGGT [GGGCGGACTCC_LTGcore_AC_RTGcore_AC] (site GGGCGGACTCC) (LTG core: AC, RTG core: AC)", "values": [{"measurement": "recombinant barcode read abundance (log10)", "result": 0.3}]}
{"sequence": "GGGCGGAATTGGGTTCTAACCTGTTGCGGAG [GGGCGGACTCC_LTGcore_AT_RTGcore_CT] (site GGGCGGACTCC) (LTG core: AT, RTG core: CT)", "values": [{"measurement": "recombinant barcode read abundance (log10)", "result": 0.637}]}
{"sequence": "GGGCGGACCTGGGTTCTAACCTGTTGCGGAG [GGGCGGACTCC_LTGcore_CC_RTGcore_CT] (site GGGCGGACTCC) (LTG core: CC, RTG core: CT)", "values": [{"measurement": "recombinant barcode read abundance (log10)", "result": 1.4}]}
{"sequence": "GGGCGGACTTGGGTTCTAACCTGTTGCGGAC [GGGCGGACTCC_LTGcore_CT_RTGcore_GT] (site GGGCGGACTCC) (LTG core: CT, RTG core: GT)", "values": [{"measurement": "recombinant barcode read abundance (log10)", "result": 0.135}]}
{"sequence": "GGGCGGACTTGGGTTCTAACCTGTTGCGGGA [GGGCGGACTCC_LTGcore_CT_RTGcore_TC] (site GGGCGGACTCC) (LTG core: CT, RTG core: TC)", "values": [{"measurement": "recombinant barcode read abundance (log10)", "result": 1.29}]}
{"sequence": "GGGCGGACTTGGGTTCTAACCTGTTGCGGTC [GGGCGGACTCC_LTGcore_CT_RTGcore_GA] (site GGGCGGACTCC) (LTG core: CT, RTG core: GA)", "values": [{"measurement": "recombinant barcode read abundance (log10)", "result": 0.104}]}
{"sequence": "GGGCGTGCATGGGTTCTAACCTGTTGCCTAG [GGGCGTGCTAG_LTGcore_CA_RTGcore_CT] (site GGGCGTGCTAG) (LTG core: CA, RTG core: CT)", "values": [{"measurement": "recombinant barcode read abundance (log10)", "result": 0.233}]}
{"sequence": "GGGCGTGCCTGGGTTCTAACCTGTTGCCTAG [GGGCGTGCTAG_LTGcore_CC_RTGcore_CT] (site GGGCGTGCTAG) (LTG core: CC, RTG core: CT)", "values": [{"measurement": "recombinant barcode read abundance (log10)", "result": 0.255}]}
{"sequence": "GGGCGTGCTTGGGTTCTAACCTGTTGCCTCG [GGGCGTGCTAG_LTGcore_CT_RTGcore_CG] (site GGGCGTGCTAG) (LTG core: CT, RTG core: CG)", "values": [{"measurement": "recombinant barcode read abundance (log10)", "result": 0.166}]}
{"sequence": "GGGCGTGCTTGGGTTCTAACCTGTTGCCTTA [GGGCGTGCTAG_LTGcore_CT_RTGcore_TA] (site GGGCGTGCTAG) (LTG core: CT, RTG core: TA)", "values": [{"measurement": "recombinant barcode read abundance (log10)", "result": 0.139}]}
{"sequence": "GGGCGTGGATGGGTTCTAACCTGTTGCCTAG [GGGCGTGCTAG_LTGcore_GA_RTGcore_CT] (site GGGCGTGCTAG) (LTG core: GA, RTG core: CT)", "values": [{"measurement": "recombinant barcode read abundance (log10)", "result": 0.0898}]}
{"sequence": "GGGCGTGGCTGGGTTCTAACCTGTTGCCTAG [GGGCGTGCTAG_LTGcore_GC_RTGcore_CT] (site GGGCGTGCTAG) (LTG core: GC, RTG core: CT)", "values": [{"measurement": "recombinant barcode read abundance (log10)", "result": 0.276}]}
{"sequence": "GGGCGTGTTTGGGTTCTAACCTGTTGCCTAG [GGGCGTGCTAG_LTGcore_TT_RTGcore_CT] (site GGGCGTGCTAG) (LTG core: TT, RTG core: CT)", "values": [{"measurement": "recombinant barcode read abundance (log10)", "result": 0.0908}]}
{"sequence": "GGTGCCCAATGGGTTCTAACCTGTTGCCGAG [GGTGCCCCTCG_LTGcore_AA_RTGcore_CT] (site GGTGCCCCTCG) (LTG core: AA, RTG core: CT)", "values": [{"measurement": "recombinant barcode read abundance (log10)", "result": 0.135}]}
{"sequence": "GGTGCCCACTGGGTTCTAACCTGTTGCCGGT [GGTGCCCCTCG_LTGcore_AC_RTGcore_AC] (site GGTGCCCCTCG) (LTG core: AC, RTG core: AC)", "values": [{"measurement": "recombinant barcode read abundance (log10)", "result": 0.066}]}
